In patent EP0135714B1, “Sustained release compositions for biologically active materials” (MELAMINE CHEMICALS, INC., priority 1983, dated 1985):
Where two headings read alike, the source gives them in different places.

Key:
[1] = system: Alfalfa seeds; experiment: Pot test: germination of alfalfa seeds on treated soil; format: in vivo
From the text: The effectiveness of these granular materials in preventing the germination of alfalfa seeds was used as an assay of the continued performance of the 2,4-D admixed with the melamine compositions. As long as significant quantities of 2,4-D are present, alfalfa seed will not germinate completely. When the alfalfa seeds receiving the treatment germinate comparably to seeds which received no treatment, the period of effectiveness of the 2,4-D has ended.
Alfalfa seeds (1 gram) were planted on the surface of sieved unsterile compost soil in 2½ in. x 2½ in. (6.3 cm x 6.3 cm) plastic pots. Each test pot stood in a plastic saucer in order to avoid contamination between pots. After introduction of the seeds, the pots were well watered from the top and covered with another plastic dish until germination was established. This avoided unnecessary drying out of the soil and maintained an intimate moist atmosphere for seed germination. All test pots were kept in a controlled temperature room at 70°F for the duration of the trial. After germination was established the covers were removed to avoid any restriction of seedling growth. Seeds and plants were monitored daily, watered evenly as necessary, and growth changes recorded.
A series of four pot treatments was set up as follows: • (a) control pots to which no chemical was applied; • (b) 2,4-D alone (applied at a rate equivalent to 22.7 kg of 2,4-D/ ha ); • (c) 2,4-D/melamine granules of Example 1 (applied at a rate equivalent to 22.7 kg of 2,4-D/ha ); and • (d) melamine granules (not containing 2,4-D) in an amount equal to that used in treatment (c).
The melamine/binder ratio was essentially the same in the granules used in treatments (c) and (d), the difference being in the presence or absence of 2,4-D. The granules were used by distributing them over the soil surfaces in the pots.
For each treatment, replicates of three pots were set up in four groups (A), (B), (C) and (D) so that alfalfa seeds could be planted on undisturbed soil for each of the following three weeks. All pots in each series were treated equally from the outset with respect to applied material, watering and light. The experiment was started when the treatments were applied to all of the pots by sprinkling the applied material on the surface of the soil, and pots (A) were planted. One week later, alfalfa seeds were planted in pots (B). Another week later, pots (C) were planted with alfalfa seeds and finally three weeks after application of the chemicals, pots (D) were planted with alfalfa seeds.
The pots in the four groups of pots A, B, C and D thus were treated at the same time, some pots receiving treatment (a): no chemical applied, to provide a control; some treatment (b): 2,4-D alone applied; and so on. […]

[2] = system: weeds; experiment: Pot test with Douglas-fir seedlings: weed growth on the soil surface; format: in vivo
From the text: (§1) The following granular herbicide formulations were used: • (a) 2,4-D 5%, melamine 71%, urea 24% • (b) 2,4-D 4.7%, melamine 88.1%, resin solids 7.2% • (c) 2,4-D/KL (a controlled release formulation of 2,4-D with kraft lignin 10%, melamine 72%, urea 18% • (d) Velpar® herbicide 5.35%, melamine 90.35%, resin solids 4.3% (V/MI) • (e) b and d, applied together • (f) control, no treatment • (g) technical 2,4-D treatment
(§2) Douglas-fir seedlings (2.0) were planted in 10" (25 cm) diameter pots. Each of the above five granule treatments was applied to three potted firs. Two control sets of potted seedlings had respectively no treatment, and an application of commercial 2,4-D, for comparison. In the application of the commercial 2,4-D, the fine powdered material was applied evenly to the soil surface, using the same 2,4-D material employed in making the granular formulations.
(§3) The 2,4-D was applied in all sets at the equivalent rate of 22.7 kg ai/ha and the Velpar® herbicide at 23.8 kg ai/ha (ai = active ingredient).
(§4) These sets were monitored for seedling height growth, growth quality of the seedling, and weed growth surrounding the seedling, represented as a % of soil surface.
There were no visible weeds present on the soil at the time of treatment. However, volunteer weed seeds were always present in the atmosphere and daily settled on the soil surface. […]

[3] = system: Douglas-fir seedlings; experiment: Pot test with Douglas-fir seedlings: seedling height growth; format: in vivo; details: Fig. 4: 24 weeks after the treatment date
From the text: as §1, §2, §3, §4
In the drawings, Figs. 1 and 3 compare the weed growth observed following soil treatment, using the pot-planted Douglas fir seedlings. […]

[4] = Rate of release from granules in dialysis tubing into a water bath; format: physicochemical; details: after 8-9 days
Procedure: Each of these formulations was made up into granules that were screened to fall within the size range of 0.84 to 1.41 mm.
In order to make measurements on the amount of herbicide released from each set of granules, a sample was taken of each. The sample was placed in dialysis tubing. The tubing was submerged in a covered container of distilled water containing 10 liters of water at 22°C. The solution was agitated and 10 ml. aliquots were removed at appropriate times.
The aliquots were subjected to analyses by an ultra-violet spectrophotometer at 203, 247 and 284 nm. respectively, for determination of the contents of melamine and herbicide.

[5] = pH 7, cited from earlier work
[6] = Table II (Example 3), soil treatment applied at 0 days, 22.7 kg of 2,4-D/ha

Compound: O=C(O)COc1ccc(Cl)cc1Cl [2,4-D, 2,4-dichlorophenoxyacetic acid]
- mortality or aborted germination ([1]; Example 3, (A) pots, planted at 0 days): 100%
- Extent of Germination (B) Pots Planted; 7 Days Later [1, 6]: 80%
- Extent of Germination (C) Pots Planted; 14 Days Later [1, 6]: 90%
- Extent of Germination (D) Pots Planted; 21 Days Later ([1]; Table II (Example 3), soil treatment applied at 0 days, 22.7 kg of 2,4-D/ha, listed as 2,4-D alone): germinating as well as the controls
- weed control (in words) ([2]; 2,4-D 22.7 kg ai/ha, Velpar herbicide 23.8 kg ai/ha): initially gave good weed control
- weed population occupied % of the soil surface ([2]; by fourteen weeks, 22.7 kg ai/ha): ~90%
- mean height growth [3]: 28 cm.
- height growth greater than the non-treated control ([3]; control 20 cm): 40%
- herbicide entered the bath [4]: 100%

Compound: Nc1nc(O)nc(O)n1 [Ammelide]
- Solubility (g/100g) ([5]; water at 20°C): less than 0.008 g/100g

Compound: Nc1nc(N)nc(O)n1 [Ammeline]
- Solubility (g/100g) ([5]; water at 20°C): 0.008 g/100g

Compound: Nc1nc(N)nc(-c2ccccc2)n1 [Benzoguanamine]
- Solubility (g/100g) ([5]; water, 22°C): 0.06 (22°C) g/100g

Compound: O=c1[nH]c(=O)[nH]c(=O)[nH]1 [Cyanuric Acid]
- Solubility (g/100g) [5]: 0.27 g/100g

Compound: N#CNC(=N)N [Dicyandiamide]
- Solubility (g/100g) [5]: 2.26 (at 13°C) g/100g

Compound: Nc1nc(N)nc(N)n1.O=[N+]([O-])O [Melamine Nitrate]
- Solubility (g/100g) [5]: 0.85 g/100g

Compound: Nc1nc(N)nc(N)n1 [Melamine]
- Solubility (g/100g) ([5]; water at 20°C): 0.50 g/100g

Compound: NC(N)=O [Urea]
- Solubility (g/100g) ([5]; water, at 25°C): 119.3 (at 25°C) g/100g

Compound: Potassium Acid Sulfate
- Solubility (g/100g) [5]: 51.4 g/100g
